# Results from publication PMC8272913 (ACS chemical neuroscience, 2019).
# Where two headings read alike, the source gives them in different places.
# Assays:
# rat SERT (rSERT) = rat SERT (rSERT) (Rattus norvegicus, UniProt P31652); test: Inhibition of [3H]citalopram binding to rSERT from rat brain tissue; conditions: for Ki: read-out: Ki, binding affinity for rSERT; for fold decrease in rSERT binding affinity relative to paroxetine: vs paroxetine
# hSERT WT [1] = target: T1, hSERT WT (Homo sapiens, UniProt P31645); assay type: cell-based; conditions: read-out: Ki (nM) 5-HT Transport WT
# hSERT-A169D [2] = target: T2, hSERT-A169D (Homo sapiens, UniProt P31645, A169D); assay type: binding
# hSERT = hSERT (Homo sapiens, UniProt P31645); assay type: binding
# hSERT WT [3] = target: T1, hSERT WT; conditions: read-out: Ki (nM) RTI-55 Binding WT
# hSERT-A169D [4] = target: T2, hSERT-A169D; assay type: cell-based
# rat SERT (rSERT), sequence (P31652 whole entry): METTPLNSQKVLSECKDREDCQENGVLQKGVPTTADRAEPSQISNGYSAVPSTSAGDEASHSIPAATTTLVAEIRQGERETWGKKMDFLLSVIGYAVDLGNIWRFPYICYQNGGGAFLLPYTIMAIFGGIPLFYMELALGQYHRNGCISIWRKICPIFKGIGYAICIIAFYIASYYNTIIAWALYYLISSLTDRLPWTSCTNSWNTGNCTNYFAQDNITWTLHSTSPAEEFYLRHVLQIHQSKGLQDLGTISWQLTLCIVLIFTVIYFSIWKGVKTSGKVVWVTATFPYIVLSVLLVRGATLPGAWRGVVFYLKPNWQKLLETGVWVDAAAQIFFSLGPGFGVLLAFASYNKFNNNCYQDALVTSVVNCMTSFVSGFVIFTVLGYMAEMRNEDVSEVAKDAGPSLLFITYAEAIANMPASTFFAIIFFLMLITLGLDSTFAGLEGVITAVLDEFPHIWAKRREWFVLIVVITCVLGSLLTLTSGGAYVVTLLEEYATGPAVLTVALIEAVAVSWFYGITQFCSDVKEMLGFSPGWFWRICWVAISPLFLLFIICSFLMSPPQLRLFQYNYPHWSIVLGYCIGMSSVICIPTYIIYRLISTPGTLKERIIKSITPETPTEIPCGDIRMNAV
smiles,measurement,setting,value
CCCCCCN1CCC(c2ccc(F)cc2)C(COc2ccc3c(c2)OCO3)C1 (centres unmarked) [compound 1],Ki,rat SERT (rSERT),395 nM
CCCN1CCC(c2ccc(F)cc2)C(COc2ccc3c(c2)OCO3)C1 (centres unmarked) [compound 2],Ki,rat SERT (rSERT),98 nM
Fc1ccc(C2CCN(Cc3ccc(Br)cc3)CC2COc2ccc3c(c2)OCO3)cc1 (centres unmarked) [compound 3],Ki,rat SERT (rSERT),204 nM
O=C(Cc1ccc(Br)cc1)N1CCC(c2ccc(F)cc2)C(COc2ccc3c(c2)OCO3)C1 (centres unmarked) [compound 6],Ki,rat SERT (rSERT),3820 nM
"Brc1ccc([C@@H]2CCNC[C@H]2COc2ccc3c(c2)OCO3)cc1 [compound 13, 4-bromoparoxetine]",Ki,rat SERT (rSERT),4.9 nM
same,fold decrease in rSERT binding affinity relative to paroxetine,rat SERT (rSERT),16 fold
same,Ki,hSERT WT [1],2.3 ± 0.27 nM
same,RTI-55 Binding Sensitivity toward the A169D mutation,hSERT-A169D [2]; A169D versus WT,1.6
same,Ki,"hSERT-A169D [2]; read-out: Ki (nM) RTI-55 Binding A169D, hSERT A169D",1.72 ± 0.39 nM
same,fold reduction in binding affinity as compared to paroxetine,hSERT,~ 4 fold
same,Ki,"hSERT; read-out: Ki, binding affinity",0.32 ± 0.028 nM
same,Ki,hSERT WT [3],1.07 ± 0.3 nM
same,5-HT Transport Sensitivity toward the A169D mutation,hSERT-A169D [4]; A169D versus WT,2.8
same,Ki,"hSERT-A169D [4]; read-out: Ki (nM) 5-HT Transport A169D, hSERT A169D",6.37 ± 0.74 nM
CN1CC[C@@H](c2ccc(F)cc2)[C@H](COc2ccc3c(c2)OCO3)C1 [compound 14],Ki,rat SERT (rSERT),2.95 nM
same,fold decrease in rSERT binding affinity relative to paroxetine,rat SERT (rSERT),9.5 fold
"c1ccc([C@@H]2CCNC[C@H]2COc2ccc3c(c2)OCO3)cc1 [compound 15, desfluoroparoxetine]",Ki,rat SERT (rSERT),0.557 nM
